The values below come from ChEMBL document CHEMBL1149610, “Bicyclo[2.2.2]octyl esters of dialkylamino acids as antiprotozoals” (Bioorg Med Chem, 2007).

As usually defined, the IC50 is the concentration needed to halve the response being measured.

In test [1] the test system is Trypanosoma brucei rhodesiense. The test can be described thus: Antitrypanosomal activity against Trypanosoma brucei rhodesiense after 72 hrs by microplate assay. It is filed as functional, organism-based.
Test [2] can be described thus: Selectivity index, ratio of IC50 for rat L6 cells to IC50 for Trypanosoma brucei rhodesiense. The test is classed as functional.
The test system of another test is Plasmodium falciparum. The test can be described thus: Antiplasmodial activity against chloroquine, pyrimethamine-resistant Plasmodium falciparum K1 after 48 hrs. It is filed as functional, organism-based. As to conditions: K1, 48 h.
A short description of test [3]: Selectivity index, ratio of IC50 for rat L6 cells to IC50 for Plasmodium falciparum K1. It is filed as functional.
The next test deals with L6. The test can be described thus: Cytotoxicity against rat L6 cells after 72 hrs by microplate assay. The test is classed as cell-based. As to conditions: L6, 72 h.

`CN(C)C12CC(OC(=O)C(C)(C)C)C(C(c3ccccc3)C1)C(c1ccccc1)C2` (racemic): the figures for the 50% inhibitory concentration (IC50) (in test [1]; in the test with Plasmodium falciparum; in the test with L6) were 620 nM, 420 nM and 5060 nM, respectively. In addition, the “Ratio IC50” value is on record as 8.16 in test [2] and 12.05 in test [3].
On to `CN(C)C12CC(OC(=O)CN3CCCC3)C(C(c3ccccc3)C1)C(c1ccccc1)C2` (racemic), for which the figures for the “Ratio IC50” value in test [2] and in test [3] were 155.5 and 46, respectively.
Regarding `CN(C)C12CC(OC(=O)/C=C/c3ccccc3)C(C(c3ccccc3)C1)C(c1ccccc1)C2` (racemic), the concentration for half-maximal inhibition (IC50) worked out at 830 nM in test [1], 690 nM with Plasmodium falciparum and 3820 nM in the test with L6. For the same compound, the entries for the “Ratio IC50” value in test [2] and in test [3] were 4.6 and 5.54, respectively.
For `CC(=O)OC1CC2(N3CCCCC3)CC(c3ccccc3)C1C(c1ccccc1)C2` (racemic), the results for the IC50 (in test [1]; in the test with Plasmodium falciparum) were 9890 nM and more than 11000 nM, respectively.
For the compound `CN(C)C12CC(OC(=O)CN3CCCCC3)C(C(c3ccccc3)C1)C(c1ccccc1)C2` (racemic), the “Ratio IC50” value in test [2] amounted to 14.7; in test [3], 56.27.
The like results for `CCN(CC)CC(=O)OC1CC2(N3CCCC3)CC(c3ccccc3)C1C(c1ccccc1)C2` (racemic) were, in that order, 68.06 and 245.
For the compound `CN(C)C12CC(OC(=O)c3ccc4c(c3)OCO4)C(C(c3ccccc3)C1)C(c1ccccc1)C2` (racemic), the IC50 in test [1] was found to be 980 nM; with Plasmodium falciparum it was 340 nM; in the test on L6 it was 5320 nM. In addition, the “Ratio IC50” value in test [2] came out at 5.43; in test [3] it was 15.65.
The matching figures for `CC(C)(C)C(=O)OC1CC2(N3CCCCC3)CC(c3ccccc3)C1C(c1ccccc1)C2` (racemic): 2690 nM, 7930 nM, 12000 nM, 4.46 and 1.51.
As to `O=C(CN1CCCCC1)OC1CC2(N3CCCC3)CC(c3ccccc3)C1C(c1ccccc1)C2` (racemic), the “Ratio IC50” value in test [2] and in test [3] was 38.43 each time.
In the test with Plasmodium falciparum, `C[C@@H]1CC[C@H]2[C@@H](C)C(=O)O[C@@H]3O[C@@]4(C)CC[C@@H]1[C@]32OO4` [ARTEMISININ] came in with an IC50 of 6.4 nM.
As to `CC(=O)OC1CC2(N3CCCC3)CC(c3ccccc3)C1C(c1ccccc1)C2` (racemic), the concentration for half-maximal inhibition (IC50) in test [1] is 4930 nM; with Plasmodium falciparum, more than 11700 nM.
`CN(C)C12CC(O)C(C(c3ccccc3)C1)C(c1ccccc1)C2` (racemic): the “Ratio IC50” value is 44.92 in test [2] and less than 8.53 in test [3].
Regarding `O=C(/C=C/c1ccccc1)OC1CC2(N3CCCCC3)CC(c3ccccc3)C1C(c1ccccc1)C2` (racemic), the IC50 in test [1] stood at 1410 nM; with Plasmodium falciparum, 450 nM; in the test with L6, 10500 nM. The “Ratio IC50” value in test [2] worked out at 7.43; in test [3], 23.27.
`CCN(CC)CC(=O)OC1CC2(N(C)C)CC(c3ccccc3)C1C(c1ccccc1)C2` (racemic): the figures for the “Ratio IC50” value in test [2] and in test [3] were 49.41 and 11.08, respectively.
The like results for `CCN(CC)CC(=O)OC1CC2(N3CCCCC3)CC(c3ccccc3)C1C(c1ccccc1)C2` (racemic) were, in that order, 42.71 and 95.68.
Turning to `CC(C)(C)C(=O)OC1CC2(N3CCCC3)CC(c3ccccc3)C1C(c1ccccc1)C2` (racemic), the IC50 in test [1] stood at 1380 nM; in the test with Plasmodium falciparum, 990 nM; in the test on L6, 7620 nM. Moreover, the “Ratio IC50” value was found to be 5.52 in test [2] and 7.7 in test [3].
For `O=C(CN1CCCC1)OC1CC2(N3CCCCC3)CC(c3ccccc3)C1C(c1ccccc1)C2` (racemic), the “Ratio IC50” value is on record as 51.19 in test [2] and 34.85 in test [3].
As for `CC(=O)OC1CC2(N(C)C)CC(c3ccccc3)C1C(c1ccccc1)C2` (racemic), the values for the 50% inhibitory concentration (IC50) (in test [1]; in the test on Plasmodium falciparum) were 4750 nM and more than 12500 nM, respectively.
On to `O=C(OC1CC2(N3CCCCC3)CC(c3ccccc3)C1C(c1ccccc1)C2)c1ccc2c(c1)OCO2` (racemic), for which the IC50 in test [1] was found to be 2510 nM; with Plasmodium falciparum, 550 nM; in the test with L6, 12700 nM. In addition, the “Ratio IC50” value in test [2] came to 5.07; in test [3] it was 23.15.
The matching figures for `O=C(OC1CC2(N3CCCC3)CC(c3ccccc3)C1C(c1ccccc1)C2)c1ccc2c(c1)OCO2` (racemic): 820 nM, 390 nM, 5650 nM, 6.89 and 14.49.
The like results for `O=C(CN1CCCC1)OC1CC2(N3CCCC3)CC(c3ccccc3)C1C(c1ccccc1)C2` (racemic) were, in that order, 230 nM, 700 nM, 42900 nM, 186.7 and 61.34.
For the compound `O=C(CN1CCCCC1)OC1CC2(N3CCCCC3)CC(c3ccccc3)C1C(c1ccccc1)C2` (racemic), the figures for the “Ratio IC50” value in test [2] and in test [3] were 69.41 and 335.5, respectively.
In the case of `O=C(/C=C/c1ccccc1)OC1CC2(N3CCCC3)CC(c3ccccc3)C1C(c1ccccc1)C2` (racemic), the IC50 in test [1] was determined as 1040 nM; in the test on Plasmodium falciparum, 630 nM; with L6 it was 3500 nM. The “Ratio IC50” value amounted to 3.37 in test [2] and 5.56 in test [3].
